Key:
Type in all cases: in vivo
[1] = test system: common ragweed (Ambrosia artemisizfolia L., AMBEL); assay: Pre-emerge test, greenhouse herbicide activity screening; conditions: pre-emerge, 14 days after application, scale 0-100
How it was run: (§1)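 Visual ratings on a 0-100 scale (0 no damage, 100 all plants dead) were taken at 14 days after treatment. Rates of 15-1000 g ai/ha in acetone, 187 l/ha, were sprayed onto soil one day after planting (pre-emerge) or onto 2-3 leaf plants with 0.25% v/v surfactant (post-emerge).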

[2] = test system: velvetleaf (Abutilon theophrasti, ABUTH); assay: as above; conditions: pre-emerge, 14 days after application, scale 0-100
How it was run: as §1

[3] = test system: large crabgrass (Digitaria sanguinalis, DIGSA); assay: as above; conditions: pre-emerge, 14 days after application, scale 0-100
How it was run: as §1

[4] = test system: ivyleaf morningglory (Ipomoea hederacea, IPOHE); assay: as above; conditions: pre-emerge, 14 days after application, scale 0-100
How it was run: as §1

[5] = test system: johnsongrass (Sorghum halepense, SORHA); assay: as above; conditions: pre-emerge, 14 days after application, scale 0-100
How it was run: as §1

[6] = test system: sicklepod (Cassia obtusifolia, CASOB); assay: as above; conditions: pre-emerge, 14 days after application, scale 0-100
How it was run: as §1

[7] = test system: green foxtail (Setaria viridis, SETVI); assay: as above; conditions: pre-emerge, 14 days after application, scale 0-100
How it was run: as §1

[8] = test system: lambsquarters (Chenopodium album, CHEAL); assay: as above; conditions: pre-emerge, 14 days after application, scale 0-100
How it was run: as §1

[9] = test system: barnyardgrass (Echinochloa crus-galli, ECHCG); assay: as above; conditions: pre-emerge, 14 days after application, scale 0-100
How it was run: as §1

[10] = test system: upland rice (Oryza sp., var. Tebonnet, RICE); assay: Pre-emerge test, crop safety; conditions: pre-emerge, 14 days after application, scale 0-100
How it was run: (§2)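 Fourteen days after spraying, crop and weed injury was graded visually from 0, no effect, to 100, every plant dead. Test substances were dissolved in acetone and applied at 15–1000 g ai/ha with a flat-fan nozzle. Application was either pre-emergence, one day after sowing, or post-emergence at the 2–3 leaf stage.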

[11] = test system: field corn (Zea mays L., var. Dekalb 535, CORN); assay: Pre-emerge test, crop safety; conditions: pre-emerge, 14 days after application, scale 0-100
How it was run: as §2

[12] = test system: velvetleaf (Abutilon theophrasti, ABUTH); assay: Post-emerge test, greenhouse herbicide activity screening; conditions: post-emerge, 14 days after application, rating scale 0-100
How it was run: (§3)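 Plants grown in 10 cm pots of sandy loam mix received acetone-dissolved compounds through a moving flat-fan nozzle. Doses ranged from 15 to 1000 g ai/ha. Pre-emerge pots were seeded one day earlier, post-emerge pots 8–21 days earlier. Fourteen days on, each pot was graded 0–100 for damage.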

[13] = test system: large crabgrass (Digitaria sanguinalis, DIGSA); assay: as above; conditions: post-emerge, 14 days after application, rating scale 0-100
How it was run: as §3

[14] = test system: ivyleaf morningglory (Ipomoea hederacea, IPOHE); assay: as above; conditions: post-emerge, 14 days after application, rating scale 0-100
How it was run: as §3

[15] = test system: redroot pigweed (Amaranthus retroflexus, AMARE); assay: as above; conditions: post-emerge, 14 days after application, rating scale 0-100
How it was run: as §3

[16] = test system: johnsongrass (Sorghum halepense, SORHA); assay: as above; conditions: post-emerge, 14 days after application, rating scale 0-100
How it was run: as §3

[17] = test system: sicklepod (Cassia obtusifolia, CASOB); assay: as above; conditions: post-emerge, 14 days after application, rating scale 0-100
How it was run: as §3

[18] = test system: green foxtail (Setaria viridis, SETVI); assay: as above; conditions: post-emerge, 14 days after application, rating scale 0-100
How it was run: as §3

[19] = test system: lambsquarters (Chenopodium album, CHEAL); assay: as above; conditions: post-emerge, 14 days after application, rating scale 0-100
How it was run: as §3

[20] = test system: barnyardgrass (Echinochloa crus-galli, ECHCG); assay: as above; conditions: post-emerge, 14 days after application, rating scale 0-100
How it was run: as §3

[21] = test system: upland rice (Oryza sp., var. Tebonnet, RICE); assay: Post-emerge test, crop safety; conditions: post-emerge, 14 days after application, rating scale 0-100
How it was run: as §1

[22] = test system: field corn (Zea mays L., var. Dekalb 535, CORN); assay: Post-emerge test, crop safety; conditions: post-emerge, 14 days after application, rating scale 0-100
How it was run: as §1

[23] = test system: redroot pigweed (Amaranthus retroflexus, AMARE); assay: Pre-emerge test, greenhouse herbicide activity screening; conditions: pre-emerge, 14 days after application, scale 0-100
How it was run: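 Herbicidal damage is scored 0 (none) to 100 (complete plant death) two weeks after a simulated field spray. Rates span 15–1000 g ai/ha, delivered in acetone at 187 l/ha. For post-emergence treatments, plants have 2–3 leaves and the spray carries 0.25% v/v non-ionic surfactant.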

Cc1c(Cl)cc(F)c(-n2c(=O)cc(C(F)(F)F)n(C)c2=O)c1NC(=O)C=Cc1ccccc1 [2-123]
100: phytotoxicity rating AMBEL ([1]; 250 g ai/ha) | phytotoxicity rating ABUTH ([2]; 63 g ai/ha) | phytotoxicity rating ABUTH ([2]; 250 g ai/ha) | phytotoxicity rating DIGSA ([3]; 250 g ai/ha) | phytotoxicity rating IPOHE ([4]; 63 g ai/ha) | phytotoxicity rating IPOHE ([4]; 250 g ai/ha) | phytotoxicity rating SETVI ([7]; 250 g ai/ha) | phytotoxicity rating CHEAL ([8]; 63 g ai/ha) | phytotoxicity rating CHEAL ([8]; 250 g ai/ha) | phytotoxicity rating ABUTH ([12]; 63 g ai/ha) | phytotoxicity rating ABUTH ([12]; 250 g ai/ha) | phytotoxicity rating IPOHE ([14]; 63 g ai/ha) | phytotoxicity rating IPOHE ([14]; 250 g ai/ha) | phytotoxicity rating AMARE ([15]; 63 g ai/ha) | phytotoxicity rating AMARE ([15]; 250 g ai/ha) | phytotoxicity rating CASOB ([17]; 63 g ai/ha) | phytotoxicity rating CASOB ([17]; 250 g ai/ha) | phytotoxicity rating CHEAL ([19]; 63 g ai/ha) | phytotoxicity rating CHEAL ([19]; 250 g ai/ha) | phytotoxicity rating AMARE ([23]; 63 g ai/ha) | phytotoxicity rating AMARE ([23]; 250 g ai/ha)
95: phytotoxicity rating AMBEL ([1]; 63 g ai/ha)
35: phytotoxicity rating CORN ([22]; 63 g ai/ha)
0: phytotoxicity rating CORN (crop damage) ([11]; 63 g ai/ha)
10: phytotoxicity rating DIGSA ([13]; 63 g ai/ha) | phytotoxicity rating SORHA ([16]; 63 g ai/ha) | phytotoxicity rating ECHCG ([20]; 63 g ai/ha)
90: phytotoxicity rating CASOB ([6]; 250 g ai/ha)
60: phytotoxicity rating DIGSA ([3]; 63 g ai/ha) | phytotoxicity rating CASOB ([6]; 63 g ai/ha) | phytotoxicity rating RICE ([21]; 63 g ai/ha)
15: phytotoxicity rating CORN (crop damage) ([11]; 250 g ai/ha)
30: phytotoxicity rating SORHA ([5]; 63 g ai/ha) | phytotoxicity rating RICE (crop damage) ([10]; 63 g ai/ha) | phytotoxicity rating DIGSA ([13]; 250 g ai/ha) | phytotoxicity rating SORHA ([16]; 250 g ai/ha) | phytotoxicity rating SETVI ([18]; 250 g ai/ha)
40: phytotoxicity rating ECHCG ([9]; 63 g ai/ha) | phytotoxicity rating CORN ([22]; 250 g ai/ha)
20: phytotoxicity rating SETVI ([18]; 63 g ai/ha) | phytotoxicity rating ECHCG ([20]; 250 g ai/ha)
70: phytotoxicity rating SORHA ([5]; 250 g ai/ha) | phytotoxicity rating RICE ([21]; 250 g ai/ha)
80: phytotoxicity rating SETVI ([7]; 63 g ai/ha) | phytotoxicity rating ECHCG ([9]; 250 g ai/ha) | phytotoxicity rating RICE (crop damage) ([10]; 250 g ai/ha)

From US6355799B1, “Substituted benzene compounds, process for their preparation, and herbicidal and defoliant compositions containing them” (ISK Americas Incorporated, priority 1997, dated 2002)
